Measurements as given in patent publication US8377883B2, “Peptide for anti-angiogenesis and use thereof” (Beijing Institute for Cancer Research, priority 2006, dated 2013).

Assays:
[1] = tested on: mouse liver cancer H22 cells; assay: Tumor suppression in liver cancer H22 cells tumor-bearing mouse model (Example 4); type: in vivo, mice of Kunming strain; conditions: 50 m/1000 PBS/injection, angulus oculi medialis vein daily, 7 times; vs PBS control, P<0.05
Procedure: (§1) To confirm the biological effects of FpAT on the growth of mice deriving tumor in mice in vivo, a tumor suppression experiment was carried out in this example using liver cancer H22 cells tumor-bearing mouse model of mice of Kunming strain and osteosarcoma S180 cells tumor-bearing mouse model of mice of Kunming strain. Forty 5-week old mice of Kunming strain purchased from Animal Center Of Chinese Academy Of Medical Sciences were inoculated subcutaneously in forelimb with mouse liver cancer H22 cells (National Institute for the Control of Pharmaceutical and Biological Products) (5×10^6/100 μl/mouse) or osteosarcoma S180 cells (National Institute for the Control of Pharmaceutical and Biological Products) (5×10^6/100 μl/mouse). On the next day after inoculation, each kind of inoculated cells were divided into 2 groups randomly with 10 mice per group. FpAT ([…]) or vehicle (the solvent for peptide) control (PBS:100 μl/injection) were injected in angulus oculi medialis vein daily, 7 times in total. The mice were sacrificed by dislocating the neck on the next day after administration was stopped, and the tumors were taken and weighed for a statistical analysis.

osteosarcoma S180 cells = assay: Tumor suppression in osteosarcoma S180 cells tumor-bearing mouse model (Example 4); type: in vivo, mice of Kunming strain; conditions: 50 m/1000 PBS/injection, angulus oculi medialis vein daily, 7 times; vs PBS control, P<0.05
Procedure: as §1

[2] = tested on: human gastric carcinoma BGC-823 cells; assay: Tumor suppression in human gastric carcinoma BGC-823 tumor-bearing nude mice model; type: in vivo, Balb/c nude mice; conditions: 50 μg/100 μl PBS/injection, angulus oculi medialis vein once every other day, 10 times; vs vehicle, P<0.05
Procedure: (§2) In order to confirm the biological effects of FpAT on the growth of human deriving tumors in nude mice in vivo, a tumor suppression experiment was carried out in this example using human gastric carcinoma BGC-823 cells tumor-bearing nude mice model, human lung cancer PG cells tumor-bearing nude mice model and human colon cancer HT-29 cells tumor-bearing nude mice model.
(§3) Twenty 5-week old Balb/c nude mice purchased from Animal Center Of Chinese Academy Of Medical Sciences were inoculated subcutaneously in forelimb with human gastric carcinoma BGC-823 cells (National Institute for the Control of Pharmaceutical and Biological Products) (5×10^6/100 μl/mouse), human lung cancer PG cells (National Institute for the Control of Pharmaceutical and Biological Products) (5×10^6/100 μl/mouse) or human colon cancer HT-29 cells (ATCC® Number: HTB-38™) (5×10^6/100 μl/mouse). On the next day after inoculation, each kind of inoculated cells were divided into 2 groups randomly with 5 mice per group. […] Observation was continued for another 20 days after administration was stopped, and during this period the long and short diameters of the tumors were measured with a vernier caliper once every three days, and the volumes of the tumor mass were calculated according to formula ½×long diameter×short diameter^2. […]

[3] = tested on: human colon cancer HT-29 cells; assay: Tumor suppression in human colon cancer HT-29 tumor-bearing nude mice model; type: in vivo, Balb/c nude mice; conditions: 50 μg/100 μl PBS/injection, angulus oculi medialis vein once every other day, 10 times; vs vehicle, P<0.05
Procedure: as §2, §3

[4] = tested on: D2F2 cells (Balb/c mouse-derived breast carcinoma cell); assay: MTT proliferation of D2F2 cells; type: cell-based; conditions: 25 μg/ml PBS, ninety six hours
Procedure: To investigate direct effects of FpAT on tumor cells in vitro, the influence of FpAT on the proliferation of D2F2 cell (Balb/c mouse-derived breast carcinoma cell) was examined using MTT in this example.
D2F2 cells (Mahoney K H, Miller B E, Heppner G H. FACS quantitation of leucine aminopeptidase and acid phosphatase on tumor-associated macrophages from metastatic and nonmetastatic mouse mammary tumors. J Leukoc Biol. 1985 November; 38(5): 573-85.) were cultured conventionally. The cultured D2F2 cells were digested with 0.04% trypsin-EDTA, and inoculated into 96-well plate at 3×10^3 cells/well; after 24 hours of culture, PBS and FpAT (25 μg/ml PBS) were added separately, with 4 parallel wells per group. Ninety six hours later, 20 μl MTT solution of mass concentration of 5 mg/ml was added to each well. After the culture was performed continuously for 4 hours, the original culture medium was discarded and 200 μl DMSO was added to each well, and then it was shaken for 15 minutes. After mixed well, OD value (measured at a wavelength of 570 nm) of each well was measured in a microplate reader, and the cell suppression rates were calculated according to the following formula: cell suppression rate=(mean OD value of blank control group−mean OD value of treated group)/mean OD value of blank control group×100%.

[5] = tested on: human umbilical vein endothelial cells (HUVECs); assay: MTT proliferation of HUVECs; type: cell-based; conditions: 25 μg/ml PBS, MTT at 24, 48, 72, 96 hours
Procedure: In order to further investigate the effects of FpAT on the proliferation of various vascular endothelial cells, a cell proliferation suppression experiment was carried out using MTT method in this example.
Human umbilical cord samples (obtained from Beijing Obstetrics & Gynecology Hospital) was digested with 0.1% collagenase I (available from GIBCO BRL company), followed by a centrifugation (1000 rpm, 10 minutes) to collect human umbilical vein endothelial cells (HUVECs). After suspended in 20% FCS/RPMI1640, the cells were transferred into plastic bottles for culture in CO2 incubator (37° C., 5% CO2). Twelve hours later, unattached cells were discarded by changing medium, and then the remaining cells were cultured conventionally with the medium changed every 3 days. The cultured HUVECs were digested with 0.04% trypsin-EDTA, and inoculated into 96-well plate at 2×10^3 cells/well. After 24 hours of culture, the vehicle (PBS) and FpAT (25 μg/ml PBS) were added separately, with 4 parallel wells per group. […] After mixed well, OD value (measured at a wavelength of 570 nm) of each well was measured in a microplate reader, and the cell suppression rates were calculated according to the following formula: cell suppression rate=(mean OD value of blank control group-mean OD value of treated group)/mean OD value of blank control group×100%.

H2N-Asp-Ser-Gly-Glu-Gly-Asp-Phe-Leu-Ala-Glu-Gly-Gly-Gly-Val-Arg-COOH (H-DSGEGDFLAEGGGVR-OH; listed as Homo sapiens) [FpAT, fibrinopeptide A truncated, carboxyl terminal 15 amino acids of fibrinopeptide A]
growth of mouse liver cancer H22 cells in vivo (tumor mass) [1]: could suppressed the growths | growth of osteosarcoma S180 cells in vivo (tumor mass) (osteosarcoma S180 cells): could suppressed the growths | growth of human gastric carcinoma BGC-823 cells in nude mice (tumor mass) [2]: could suppress the growths | growth of human colon cancer HT-29 cells in nude mice (tumor mass) [3]: could suppress the growths | suppression of D2F2 cell proliferation [4]: can not suppress D2F2 cells in vitro | suppressing rate of HUVEC proliferation [5]: 40.1%
